Experimental data reported in US20070111258A1, “Compositions and methods for modulating the acute phase response” (priority 2005, published 2007).

Tests used:
[1] = tested on: CREBH; experiment: Confocal immunofluorescence of CREBH translocation in COS7 cells; assay type: cell-based; conditions: Tm 5 μg/ml 4 hours
Protocol: FIG. 3 depicts the effects of ER stress on CREBH: proteolytic cleavage of CREBH to release its N-terminal fragment that translocates into the nucleus. (A) Illustration of transmembrane domains and lumenal domains of SREBP, ATF6, Luman and CREBH in human (hs), mouse (mm). The conserved residues for S1P and S2P recognition are highlighted. (B) Cleavage of CREBH in H2.35 cells under different stimuli. H2.35 cells stably expressing flag-tagged human CREBH were treated with 0.5 μg/ml BFA, 20 ng/ml TNFα, 40 ng/ml IL6, 5 mM DTT, 0.5 μM Tg or 5 μg/ml Tm for 8 hours. Untransfected H2.35 cells (lane 1) and the H2.35 cells that stably express human CREBH (lane 2) were cultured under normal conditions as control. Total cell lysates were collected for Western blot analysis by using an anti-flag monoclonal antibody (upper panel). Levels of α-actin were determined for control of protein loading (lower panel). (C) Cleavage of CREBH in H2.35 cells under Tm treatment for various time periods. The H2.35 cells stably expressing flag-tagged CREBH were cultured in the absence or presence of Tm (5 μg/ml) for 4, 8 or 12 hours. […]
Immunofluorescence staining was performed as previously described (Paterson et al., 1995). […] The fluorescence images were examined by a confocal laser scanning fluorescence microscopy using an LSM510 (Carl Zeiss, Thornwood, N.Y.).

[2] = tested on: SAP; experiment: Serum SAP in CREBH knockdown and control RNAi mice (ELISA); assay type: in vivo, mouse; conditions: Tm 2 μg/gram body weight i.p., 24 hours
Protocol: (§1) (A) Identification of CREBH knockdown mice by Northern blot analysis. Transgenic mice with empty vector lentivirus expressing GFP were used as controls. Total RNAs (15 μg/lane) were isolated from the livers of the CREBH RNAi or the control mice, and subjected to Northern blot analysis. A 260 bp GFP cDNA fragment and a 210 bp mouse CREBH cDNA fragment were used as probes for detecting levels of GFP mRNA and CREBH mRNA, respectively. Levels of ββ-actin mRNA were determined for control of sample loading. (B) Morphology of CREBH knockdown embryos. The embryos were collected at gestation stage E14.5. The paraffin-embedded embryo sections were stained with hematoxylin and eosin. Magnification: 20 X. (C) Northern blot analysis of levels of CREBH, CRP and SAP mRNA in the livers of the CREBH knockdown or the control mice. Levels of β-actin mRNA were determined for sample loading controls. (D-E) Serum levels of SAP and CRP in the CREBH knockdown and the siRNA control mice in response to IL6 plus IL1β LPS or Tm. CREBH knockdown and RNAi control mice at 3-months of age were challenged with recombinant mouse IL6 (25 ng/gram body weight) plus recombinant mouse IL1β (25 ng/gram body weight), LPS (3 μg/gram body weight) or Tm (2 mg/kg body weight). Serum levels of SAP and CRP in the mice were determined before injection and at 24 hours after IL6 plus IL1β, LPS or Tm injection. […]

[3] = tested on: CRP; experiment: Serum CRP in CREBH knockdown and control RNAi mice (ELISA); assay type: in vivo, mouse; conditions: 24 hours after injection
Protocol: as §1

tunicamycin [Tm]
nuclear accumulation of immunoreactive CREBH protein [1]: a significant portion of the immunoreactive CREBH protein accumulated in the nucleus | increase of serum SAP ([2]; CREBH knockdown mice): approximately 2 fold | increase of serum levels of SAP ([2]; control mice): approximately 12 fold | increase of serum levels of CRP ([3]; control RNAi mice): approximately 2 fold | increase of serum levels of CRP ([3]; treated CREBH knockdown mice): no such increase
